The target in data set [1] is CXCR-4 transfected U87 cell line (U87.CXCR4) (Homo sapiens (Human), UniProt P61073). The data set can be described thus: Intracellular CXCL-12-induced calcium mobilization assay (FLIPR). It is filed as cell-based. The following applies: U87.CXCR4 cells, CXCL-12 25-50 ng/mL; read-out: IC50 CXCL-12 Ca2+ flux U87.CXCR4+. In a few lines: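 U87.CXCR4 cells were seeded at 20,000 per well, cultured 12 hours, then loaded with 4 μM Fluo-2 AM for 45 min at 37° C. in HBSS with 20 mM HEPES and 0.2% BSA, pH 7.4. Calcium flux triggered by CXCL-12 (25-50 ng/mL) was tracked over time by FLIPR fluorescence at 37° C.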
Chain of CXCR-4 transfected U87 cell line (U87.CXCR4) (P61073 whole entry): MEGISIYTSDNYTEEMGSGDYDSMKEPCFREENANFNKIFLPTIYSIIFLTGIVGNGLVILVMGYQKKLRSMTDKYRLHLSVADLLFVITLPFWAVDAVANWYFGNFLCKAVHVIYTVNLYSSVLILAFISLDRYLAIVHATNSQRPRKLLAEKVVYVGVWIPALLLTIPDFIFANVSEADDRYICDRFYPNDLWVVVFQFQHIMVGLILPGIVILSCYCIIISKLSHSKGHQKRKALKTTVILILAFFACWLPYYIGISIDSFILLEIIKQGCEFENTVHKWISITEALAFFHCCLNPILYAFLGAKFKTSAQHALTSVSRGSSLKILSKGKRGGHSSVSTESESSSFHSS

Data set [2] has as its target Jurkat cells expressing CXCR4 (Homo sapiens (Human), UniProt P61073). Description: Chemokine (CXCL12-AF647) binding inhibition assay. The conditions noted are these: CXCL12-AF647 25 ng/mL, read-out: IC50 CXCL-12 binding Jurkat. In a few lines:
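Cells in HBSS, 20 mM HEPES, 0.2% BSA, pH 7.4, preincubated 15 min at room temperature with compound, then 25 ng/mL CXCL12-AF647 for 30 min. After washing and paraformaldehyde fixation, bound ligand read by flow cytometry; percent inhibition calculated from MFI relative to unlabeled and ligand-only controls.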

A short description of the next data set: in vitro. The following applies: human, Caco-2, pH 7.4. In short, it runs like this:
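Compounds at 10 μM in HBSS pH 7.4 (0.1–0.3% DMSO) were dosed on Caco-2 monolayers, apical-to-basolateral and basolateral-to-apical, for 90 min at 37 °C, in duplicate. Monolayer integrity was checked by TEER and lucifer yellow flux, read by fluorescence at 485/535 nm. Compound was quantified by LC-MS/MS and Papp calculated.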

Chain of Jurkat cells expressing CXCR4 (P61073 whole entry): as above

For orientation: IC50 means the midpoint of a concentration-inhibition curve. Usually Papp A→B stands for the apparent permeability from the apical to the basolateral side of a cell layer. What is called Papp B→A is how fast a substance crosses the layer from the basolateral side. Broadly, the efflux ratio is a quotient of directional permeabilities that is used to spot active efflux. As to `Cc1cccnc1[C@@H]1CCC[C@H](c2cn3c(N4CCN(C)CC4)cccc3n2)N1C(C)C` [Compound I-126], in data set [1], the IC50 is 0.01 to 100 nM. The IC50 in data set [2] was in the range of 0.01 to 100 nM. Besides, in the data set “in vitro”, the Papp A→B at 90 min, 10 μM lay within 0.1 to 10 ×10⁻⁶ cm/s; the Papp B→A at 90 min, 10 μM was in the range of 10 to 30 ×10⁻⁶ cm/s; the efflux ratio at 90 min, 10 μM fell in the range of 10 to 30.
On to `Cc1cccnc1[C@@H]1CCC[C@H](c2nc3cccc(N4CCN(C)CC4)n3c2Cl)N1C(C)C` [Compound I-127], for which the IC50 in data set [1] was in the range of 0.01 to 100 nM. In data set [2], the IC50 is 0.01 to 100 nM. In the data set “in vitro”, the Papp A→B at 90 min, 10 μM lay in the range of 0.1 to 10 ×10⁻⁶ cm/s; the Papp B→A at 90 min, 10 μM was 0.1 to 10 ×10⁻⁶ cm/s; the efflux ratio at 90 min, 10 μM fell in the range of 0.1 to 10.
For `CN(C)C1CCN(c2cccc3nc([C@H]4CCC[C@@H](c5ncccc5Cl)N4C)c(Cl)n23)CC1` [Compound I-132], the IC50 in data set [1] fell in the range of 100 to 1000 nM. Also, in data set [2], the IC50 lay within 0.01 to 100 nM. In “in vitro”, the Papp A→B at 90 min, 10 μM fell in the range of 0.1 to 10 ×10⁻⁶ cm/s; the Papp B→A at 90 min, 10 μM is 0.1 to 10 ×10⁻⁶ cm/s; the efflux ratio at 90 min, 10 μM was in the range of 0.1 to 10.
With `CN1CC2CCC(C1)N2c1cccc2nc([C@H]3CCC[C@@H](c4ncccc4Cl)N3C)c(CO)n12` [Compound I-134], in data set [1], the IC50 lay in the range of 0.01 to 100 nM. Besides, the concentration for half-maximal inhibition (IC50) in data set [2] fell in the range of 0.01 to 100 nM. In addition, in the data set “in vitro”, the Papp A→B at 90 min, 10 μM lay within 10 to 30 ×10⁻⁶ cm/s; the Papp B→A at 90 min, 10 μM lay in the range of 10 to 30 ×10⁻⁶ cm/s; the efflux ratio at 90 min, 10 μM is 0.1 to 10.
For `CN1C2CCC1CN(c1cccc3nc([C@H]4CCC[C@@H](c5ncccc5Cl)N4C)c(CO)n13)C2` [Compound I-135], the IC50 in data set [1] was in the range of 0.01 to 100 nM. Moreover, in data set [2], the IC50 was in the range of 0.01 to 100 nM. Besides, in the data set “in vitro”, the Papp A→B at 90 min, 10 μM is 0.1 to 10 ×10⁻⁶ cm/s; the Papp B→A at 90 min, 10 μM lay in the range of 10 to 30 ×10⁻⁶ cm/s; the efflux ratio at 90 min, 10 μM lay within 0.1 to 10.
Turning to `CN(C)C1CCN(c2cccc3nc([C@H]4CCC[C@@H](c5ncccc5Cl)N4C)c(CO)n23)CC1` [Compound I-136], the IC50 in data set [1] was 0.01 to 100 nM. For the same molecule, the IC50 in data set [2] was 0.01 to 100 nM. In “in vitro”, the Papp A→B at 90 min, 10 μM lay in the range of 0.1 to 10 ×10⁻⁶ cm/s; the Papp B→A at 90 min, 10 μM was 10 to 30 ×10⁻⁶ cm/s; the efflux ratio at 90 min, 10 μM lay within 10 to 30.
For `Cc1cccnc1[C@@H]1CCC[C@H](c2nc3cccc(N4CC5CCC(C4)N5C)n3c2Cl)N1C` [Compound I-137], the IC50 in data set [1] is 100 to 1000 nM. Further, in data set [2], the IC50 lay in the range of 0.01 to 100 nM. Moreover, in the data set “in vitro”, the Papp A→B at 90 min, 10 μM was in the range of 0.1 to 10 ×10⁻⁶ cm/s; the apparent permeability from basolateral to apical (Papp B→A) at 90 min, 10 μM was in the range of 0.1 to 10 ×10⁻⁶ cm/s; the efflux ratio at 90 min, 10 μM lay within 0.1 to 10.
Consider `Cc1cccnc1[C@@H]1CCC[C@H](c2nc3cccc(N4C5CCC4CN(C)C5)n3c2Cl)N1C` [Compound I-138], for which the half-maximal inhibitory concentration (IC50) in data set [1] was 0.01 to 100 nM. In data set [2], the IC50 was in the range of 0.01 to 100 nM. In addition, in the data set “in vitro”, the Papp A→B at 90 min, 10 μM is 10 to 30 ×10⁻⁶ cm/s; the Papp B→A at 90 min, 10 μM was 10 to 30 ×10⁻⁶ cm/s; the efflux ratio at 90 min, 10 μM was in the range of 0.1 to 10.
With `CC[C@@H](O)c1c([C@H]2CCC[C@@H](c3ncccc3C)N2C)nc2cccc(N3CCN(C)CC3)n12` [Compound I-139], the IC50 in data set [1] fell in the range of 100 to 1000 nM. In addition, the IC50 in data set [2] lay within 0.01 to 100 nM. Also, in “in vitro”, the apparent permeability from apical to basolateral (Papp A→B) at 90 min, 10 μM is 0.1 to 10 ×10⁻⁶ cm/s; the Papp B→A at 90 min, 10 μM is more than 30 ×10⁻⁶ cm/s; the efflux ratio at 90 min, 10 μM was more than 30.
Consider `C/C=C/c1c([C@H]2CCC[C@@H](c3ncccc3C)N2C)nc2cccc(N3CCN(C)CC3)n12` [Compound I-141], for which the IC50 in data set [1] fell in the range of 100 to 1000 nM. In addition, the IC50 in data set [2] is 0.01 to 100 nM. For the same molecule, in “in vitro”, the Papp A→B at 90 min, 10 μM lay within 0.1 to 10 ×10⁻⁶ cm/s; the Papp B→A at 90 min, 10 μM is 10 to 30 ×10⁻⁶ cm/s; the efflux ratio at 90 min, 10 μM was 0.1 to 10.
As for `CN(C)C1CCN(c2cccc3nc([C@H]4CCC[C@@H](c5ncccc5Cl)N4C)cn23)CC1` [Compound I-142], in data set [1], the IC50 was 0.01 to 100 nM. In addition, the IC50 in data set [2] fell in the range of 0.01 to 100 nM. In addition, in “in vitro”, the Papp A→B at 90 min, 10 μM lay within 0.1 to 10 ×10⁻⁶ cm/s; the Papp B→A at 90 min, 10 μM lay in the range of 10 to 30 ×10⁻⁶ cm/s; the efflux ratio at 90 min, 10 μM fell in the range of 0.1 to 10.
With `CN1CCN(c2cccc3nc([C@H]4CCC[C@@H](c5ncccc5Cl)N4)c(Cl)n23)CC1` [Compound I-147], the IC50 in data set [1] lay within 100 to 1000 nM. In addition, the IC50 in data set [2] lay in the range of 0.01 to 100 nM. In “in vitro”, the Papp A→B at 90 min, 10 μM lay in the range of 10 to 30 ×10⁻⁶ cm/s; the Papp B→A at 90 min, 10 μM lay within 10 to 30 ×10⁻⁶ cm/s; the efflux ratio at 90 min, 10 μM was 0.1 to 10.
As to `CC(C)N1CCN(c2cccc3nc([C@H]4CCC[C@@H](c5ncccc5Cl)N4C)cn23)CC1` [Compound I-150], the IC50 in data set [1] was not below 1000 nM. For the same molecule, in data set [2], the IC50 was 0.01 to 100 nM. In “in vitro”, the Papp A→B at 90 min, 10 μM is 0.1 to 10 ×10⁻⁶ cm/s; the Papp B→A at 90 min, 10 μM lay in the range of 10 to 30 ×10⁻⁶ cm/s; the efflux ratio at 90 min, 10 μM lay in the range of 0.1 to 10.
In the same order, the values of `CCN1CCN(c2cccc3nc([C@H]4CCC[C@@H](c5ncccc5Cl)N4C)cn23)CC1` [Compound I-151] are 100 to 1000 nM, 0.01 to 100 nM, 10 to 30 ×10⁻⁶ cm/s, 10 to 30 ×10⁻⁶ cm/s and 0.1 to 10.
The like results for `Cc1cccnc1[C@@H]1CCC[C@H](c2nc3ccccn3c2N2CCN(C)CC2)N1C` [Compound I-152] were, in that order, 0.01 to 100 nM, 0.01 to 100 nM, 0.1 to 10 ×10⁻⁶ cm/s, 10 to 30 ×10⁻⁶ cm/s and 0.1 to 10.
In the same order, the values of `Cc1cccnc1[C@@H]1CCC[C@H](c2nc3ccccn3c2N2CCN(C)CC2)N1` [Compound I-154] are not below 1000 nM, 100 to 1000 nM, 0.1 to 10 ×10⁻⁶ cm/s, 10 to 30 ×10⁻⁶ cm/s and 0.1 to 10.
With `Cc1cccnc1[C@@H]1CCC[C@H](c2cn3c(N4CCNC5(CC5)C4)cccc3n2)N1C` [Compound I-156], the 50% inhibitory concentration (IC50) in data set [1] was in the range of 0.01 to 100 nM. The IC50 in data set [2] lay within 0.01 to 100 nM. In the data set “in vitro”, the Papp A→B at 90 min, 10 μM was 0.1 to 10 ×10⁻⁶ cm/s; the Papp B→A at 90 min, 10 μM was 10 to 30 ×10⁻⁶ cm/s; the efflux ratio at 90 min, 10 μM was in the range of 0.1 to 10.
For `CN1[C@@H](c2cn3c(N4CCNC5(CC5)C4)cccc3n2)CCC[C@H]1c1ncccc1Cl` [Compound I-159], the IC50 in data set [1] lay within 0.01 to 100 nM. Further, the IC50 in data set [2] lay within 0.01 to 100 nM. Besides, in “in vitro”, the Papp A→B at 90 min, 10 μM was 10 to 30 ×10⁻⁶ cm/s; the Papp B→A at 90 min, 10 μM lay in the range of 10 to 30 ×10⁻⁶ cm/s; the efflux ratio at 90 min, 10 μM lay in the range of 0.1 to 10.
On to `CN1CCN(c2cccc3nc([C@H]4CCC[C@@H](c5ncccc5Cl)N4)cn23)CC12CC2` [Compound I-160], for which, in data set [1], the IC50 was not below 1000 nM. Also, the IC50 in data set [2] is 100 to 1000 nM. Further, in “in vitro”, the Papp A→B at 90 min, 10 μM lay within 10 to 30 ×10⁻⁶ cm/s; the Papp B→A at 90 min, 10 μM lay within 10 to 30 ×10⁻⁶ cm/s; the efflux ratio at 90 min, 10 μM lay in the range of 0.1 to 10.
As for `Cc1cccnc1[C@@H]1CCC[C@H](c2nc3c(N)ccc(N4CCN(C)CC4)n3c2Cl)N1C` [Compound I-164], in data set [1], the IC50 lay in the range of 0.01 to 100 nM. Further, in data set [2], the half-inhibitory concentration (IC50) was 0.01 to 100 nM. Also, in “in vitro”, the Papp A→B at 90 min, 10 μM is 10 to 30 ×10⁻⁶ cm/s; the Papp B→A at 90 min, 10 μM is 10 to 30 ×10⁻⁶ cm/s; the efflux ratio at 90 min, 10 μM lay in the range of 0.1 to 10.
With `Clc1cccnc1[C@@H]1CCC[C@H](c2cn3c(N4CCNC5(CC5)C4)cccc3n2)N1` [Compound I-166], in data set [1], the IC50 is not below 1000 nM. In addition, the IC50 in data set [2] was in the range of 100 to 1000 nM. Further, in the data set “in vitro”, the apical-to-basolateral permeability (Papp A→B) at 90 min, 10 μM was in the range of 10 to 30 ×10⁻⁶ cm/s; the Papp B→A at 90 min, 10 μM is 10 to 30 ×10⁻⁶ cm/s; the efflux ratio at 90 min, 10 μM lay in the range of 0.1 to 10.
With `Clc1cccnc1[C@@H]1CCC[C@H](c2nc3cccc(N4CCNC5(CC5)C4)n3c2Cl)N1` [Compound I-167], the IC50 in data set [1] was not below 1000 nM. Also, in data set [2], the IC50 lay in the range of 100 to 1000 nM. Besides, in the data set “in vitro”, the Papp A→B at 90 min, 10 μM is 0.1 to 10 ×10⁻⁶ cm/s; the Papp B→A at 90 min, 10 μM lay within 0.1 to 10 ×10⁻⁶ cm/s; the efflux ratio at 90 min, 10 μM lay in the range of 0.1 to 10.

The record behind these values is patent US10759796B2, “CXCR4 inhibitors and uses thereof” (X4 Pharmaceuticals, Inc., priority 2016, dated 2020).
